{"source": "patent US20070059687A1", "about": "“Process for evaluating phagocytotic function and use thereof” (priority 2001, published 2007)", "key": {"[1]": {"tested_on": "Staphylococcus epidermidis", "test": "Lysis evaluated by decrease in turbidity at 600 nm", "assay_type": "cell-based", "settings": "for Decrease in turbidity of bacteria: lysostafin 50 unit/ml", "source_text": "(§1) Conditions for the enzyme to lyse Staphylococcus aureus (ATCC 12600), Staphylococcus epidermidis (ATCC 14990), Pseudomonas aeruginosa (ATCC 10145), Enterococcus faecalis (ATCC 19433) and Escherichia coli (ATCC 11775) were studied. For Staphylococcus aureus and Staphylococcus epidermidis, lysostafin was used as the lytic enzyme (Bur. J. Biochem., 38, 293-300, 1973). […] Further, for Pseudomonas aeruginosa and Escherichia coli, PBS containing 70 mmol/l sodium hydroxide was used. Each type of these bacteria was inoculated in 5 ml of BHI (Brain Heart Infusion) liquid medium (manufactured by DIFCO), and cultured at 37° C. for 8 hours or longer. Thus cultured bacterial liquid was collected by centrifugation at 4° C. for 10 minutes at 2,000×g. The collected bacteria were suspended in PBS to give a sample.\nLysis was evaluated by decrease in turbidity of the bacterial liquid at the absorbance of 600 nm using a microplate reader. Consequently, Staphylococcus aureus and Staphylococcus epidermidis were lysed by lysostafin. In respect of Pseudomonas aeruginosa and Escherichia coli, no enzymatic treatment was required because lysis was conducted with PBS containing 70 mmol/l sodium hydroxide. […] Moreover, when the bacterium incorporated upon phagocytotic action is for example, Pseudomonas aeruginosa, Escherichia coli or the like, bacterial cell wall is lysed during the alkaline treatment to result in the state in which the gene is exposed. Therefore, it is not necessary to conduct this enzymatic treatment. Each enzyme for the pretreatment which is used in lysis of the foreign microorganism according to the present invention is effective not only for the aforementioned bacterial strain, but also for other bacterial strain that includes other genus staphylococcus, genus streptococcus, genus bacillus, genus micrococcus and the like. […] The results are illustrated in FIG. 3, specifically, in regard to: (a) Staphylococcus aureus and Staphylococcus epidermidis, (b) Pseudomonas aeruginosa and Escherichia coli, and (c) Enterococcus faecalis.\nEnterococcus faecalis was inoculated in 50 ml of the aforementioned BHI liquid medium, and cultured at 37° C. for 8 hours or longer. This culture liquid was centrifuged at 4° C. for 10 minutes at 2,000×g to collect the bacteria, followed by subjecting to a heat treatment in an autoclave (120° C., for 10 minutes) after suspending in PBS. Next, the suspension was centrifuged at 4° C. for 10 minutes at 2,000×g, and the supernatant was discarded. Precipitates were suspended in 1 ml of PBS, and thereafter, subjected to freeze-drying. This freeze-dried sample was suspended in 5 mmol/l Tris-hydrochloric acid (pH 6.0), 2 mmol/l magnesium chloride containing 0 to 10% DMSO to give the samples for N-acetylmuramidase. Further, Micrococcus luteus (JCM1464) was inoculated in 5 ml of BHI liquid medium (supra), and cultured at 37° C. for 8 hours or longer. The cultured bacterial liquid was centrifuged at 4° C. for 10 minutes at 2,000×g to collect the bacteria. After discarding the supernatant, and suspending and washing the bacterial pellet with 5 ml of PBS, centrifugation was conducted once again at 4° C. for 10 minutes at 2,000×g to collect the bacteria. […] Enzymatic activity was evaluated on the basis of the decrease in turbidity of the sample at the absorbance of 600 nm using a microplate reader. […] Additionally, no decrease in enzymatic activity was found with DMSO at the concentration of 2% or less. […] The results are show in FIG. 4(a) to (c) and Table 3 below."}, "[2]": {"tested_on": "Staphylococcus aureus", "test": "Lysis evaluated by decrease in turbidity at 600 nm", "assay_type": "cell-based", "settings": "FIG. 3(a)", "source_text": "as §1, with “sample. Lysis was evaluated by decrease in turbidity of the bacterial liquid at the absorbance of 600 nm using a microplate reader. Consequently, Staphylococcus aureus and Staphylococcus epidermidis were lysed by lysostafin. In respect of Pseudomonas aeruginosa and Escherichia coli, no enzymatic treatment was required because lysis was conducted with PBS containing 70 mmol/l sodium hydroxide. […]” for “sample.”"}, "[3]": {"tested_on": "SA digested sample", "test": "Enzymatic treatment of digested sample, bacterial bodies in leukocytes by acridine orange staining", "assay_type": "cell-based, Staphylococcus aureus", "design": "key to enzymatic treatment determination: The determination was made as adequate when no bacterial body was identified in the leukocytes by the enzymatic treatment", "settings": "for enzymatic treatment determination: SA digested sample, once, twice, thrice", "procedure": "(§2) Using the slide glass having each digested sample smeared thereon, the enzymatic pretreatment was performed according to the process described in Example 3. Next, the slide glass after completing the enzymatic pretreatment was placed in a humid box, and the reaction was allowed by dropping 1 ml of each enzyme solution prepared to give each titer on the smeared site of the specimen. Thereafter, the slide glass was immersed in PBS containing 0.2 mol/l hydrochloric acid, and in 70% ethanol respectively, for 10 minutes, and air dried. After immersing this slide glass in PBS containing 70 mmol/l sodium hydroxide for 3 minutes, and in 70% ethanol for 10 minutes, it was air dried and stained with 1% acridine orange staining solution. Then, evaluation was made with a fluorescence microscope (×1,000). For Staphylococcus aureus and Staphylococcus epidermidis, examination of the optimal titer was conducted with lysostafin. […] The determination was made as adequate when no bacterial body was identified in the leukocytes by the enzymatic treatment.\n(§3) Using a slide glass including each digested sample smeared thereon, examination was conducted according to the process described in example 17 (2). Time period of the enzymatic treatment in this test was 30 minutes, and the temperature for examination was 4° C., 25° C., 37° C., 42° C., and 60° C.\n(§4) Using the slide glass including each digested sample smeared thereon, examination was conducted according to the process described in example 17 (2). […] Determination was conducted according to the process described in example 17 (2). As a consequence, for all of Staphylococcus aureus, Staphylococcus epidermidis and Enterococcus faecalis digested samples, no bacterial body was found in the leukocytes with the time period of the enzymatic treatment of 20 minutes or longer (inadequate at 0 minute and 10 minutes). Therefore, the optimal time period of the enzymatic treatment is at least 15 minutes or longer, preferably 20 minutes or longer, and still preferably 30 minutes to 60 minutes."}, "[4]": {"tested_on": "SE digested sample", "test": "Enzymatic treatment of digested sample, bacterial bodies in leukocytes by acridine orange staining", "assay_type": "cell-based, Staphylococcus epidermidis", "design": "key to enzymatic treatment determination: The determination was made as adequate when no bacterial body was identified in the leukocytes by the enzymatic treatment", "settings": "for enzymatic treatment determination: SE digested sample, once, twice, thrice", "procedure": "as §2, §3, §4"}}}
{"substance": "Lysostafin: lytic enzyme used for Staphylococcus aureus and Staphylococcus epidermidis", "values": [{"measurement": "lysis", "setting": "[1]; FIG. 3(a)", "result": "lysed"}, {"measurement": "Decrease in turbidity of bacteria", "setting": "[1]; added DMSO 0 % (control)", "result": "0.168 ± 0.017", "unit": "O.D./10 minutes"}, {"measurement": "Decrease in turbidity of bacteria", "setting": "[1]; added DMSO 0.1 %", "result": "0.164 ± 0.009", "unit": "O.D./10 minutes"}, {"measurement": "Decrease in turbidity of bacteria", "setting": "[1]; added DMSO 1 %", "result": "0.160 ± 0.008", "unit": "O.D./10 minutes"}, {"measurement": "Decrease in turbidity of bacteria", "setting": "[1]; added DMSO 2 %", "result": "0.145 ± 0.009", "unit": "O.D./10 minutes"}, {"measurement": "Decrease in turbidity of bacteria", "setting": "[1]; added DMSO 5 %", "result": "0.124 ± 0.006", "unit": "O.D./10 minutes"}, {"measurement": "Decrease in turbidity of bacteria", "setting": "[1]; added DMSO 10 %", "result": "0.094 ± 0.006", "unit": "O.D./10 minutes"}, {"measurement": "lysis", "setting": "[2]", "result": "lysed"}, {"measurement": "enzymatic treatment determination", "setting": "[3]; lysostafin titer 0.1 U/mL", "result": "Inadequate"}, {"measurement": "enzymatic treatment determination", "setting": "[3]; lysostafin titer 1 U/mL", "result": "adequate"}, {"measurement": "enzymatic treatment determination", "setting": "[3]; lysostafin titer 10 U/mL", "result": "adequate"}, {"measurement": "enzymatic treatment determination", "setting": "[3]; lysostafin titer 100 U/mL", "result": "adequate"}, {"measurement": "enzymatic treatment determination", "setting": "[3]; lysostafin titer 1,000 U/mL", "result": "adequate"}, {"measurement": "titer at which sufficient effects were exerted", "setting": "[3]; lysis of Staphylococcus aureus", "result": 1, "unit": "unit/ml"}, {"measurement": "enzymatic treatment determination", "setting": "[4]; lysostafin titer 0.1 U/mL", "result": "inadequate"}, {"measurement": "enzymatic treatment determination", "setting": "[4]; lysostafin titer 1 U/mL", "result": "inadequate"}, {"measurement": "enzymatic treatment determination", "setting": "[4]; lysostafin titer 10 U/mL", "result": "adequate"}, {"measurement": "enzymatic treatment determination", "setting": "[4]; lysostafin titer 100 U/mL", "result": "adequate"}, {"measurement": "enzymatic treatment determination", "setting": "[4]; lysostafin titer 1,000 U/mL", "result": "adequate"}, {"measurement": "titer necessary for lysis", "setting": "[4]; lysis of Staphylococcus epidermidis", "result": "≥ 10", "unit": "unit/ml"}]}
